Where two headings read alike, the source gives them in different places.
Tests used:
σ1 receptor [1] = molecular target: T1, σ1 receptor (Cavia porcellus, UniProt Q60492); experiment: σ1 receptor binding assay, radioligand [3H]-(+)-pentazocine, guinea pig brain membrane preparation; details: for inhibition at 1 µM / inhibition of the radioligand binding, σ1: test compound concentration of 1 µM
T1 construct: thawed membrane preparation of guinea pig brain; tissue Harlan-Winkelmann, Borchen, Germany (animal organs); host or cells: guinea pig brain membrane homogenate
T1 sequence (Q60492 whole entry): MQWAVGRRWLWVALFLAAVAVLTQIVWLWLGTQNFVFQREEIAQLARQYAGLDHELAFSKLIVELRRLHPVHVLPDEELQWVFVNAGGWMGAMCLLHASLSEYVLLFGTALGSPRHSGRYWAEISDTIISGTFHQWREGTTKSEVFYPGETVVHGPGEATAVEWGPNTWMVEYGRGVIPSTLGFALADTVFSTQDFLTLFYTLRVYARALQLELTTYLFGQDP

σ2 receptor [2] = molecular target: T2, σ2 receptor (Rattus norvegicus, UniProt Q5U3Y7); experiment: σ2 receptor binding assay, radioligand [3H]di-o-tolylguanidine, rat liver membrane preparation; details: for inhibition at 1 µM / inhibition of the radioligand binding, σ2: test compound concentration of 1 µM; for inhibition of the radioligand binding, σ2: 1 µM
T2 construct: The thawed rat liver membrane preparation; tissue Harlan-Winkelmann, Borchen, Germany (animal organs); host or cells: rat liver membrane homogenate
T2 sequence (Q5U3Y7 1-176): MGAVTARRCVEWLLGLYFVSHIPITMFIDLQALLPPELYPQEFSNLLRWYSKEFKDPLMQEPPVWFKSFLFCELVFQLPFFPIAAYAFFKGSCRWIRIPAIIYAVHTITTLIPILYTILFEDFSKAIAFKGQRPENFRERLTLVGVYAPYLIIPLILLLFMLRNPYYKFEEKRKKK

σ1 receptor [3] = details: cited from earlier work; for Ki: Figure 2
σ2 receptor [4] = details: cited from earlier work; for Ki: Figure 2
σ1 receptor [5] = molecular target: T1, σ1 receptor; details: cited from earlier work
σ2 receptor [6] = molecular target: T2, σ2 receptor; details: cited from earlier work; for inhibition of the radioligand binding, σ2: test compound concentration of 1 µM, already reported, 1 µM
[7] = azapropellanes 9, already reported

| SMILES | inhibition at 1 µM (σ1 receptor [1]) [%] | inhibition at 1 µM (σ2 receptor [2]) [%] | melting point [°C] | also measured |
| --- | --- | --- | --- | --- |
| O=C(Nc1ccc(F)c(F)c1)NC1CC23CCCCC2(CC(O)C3)C1 (mixture of isomers) [8-syn-26, 1-(3,4-Difluorophenyl)-3-(8-syn-11-syn- and 8-syn-11-anti-11-hydroxy[4.3.3]-propellan-8-yl)urea] | 10 | 0 | 171 to 178 | – |
| COc1ccc(CN2CC3CCCC2CN3Cc2ccccc2)cc1 (centres unmarked) [compound 2] | – | – | – | Ki (σ1 receptor [3]): 0.91 nM; selectivity for σ1 against/over the σ2 subtype (σ1 receptor [3]): more than 40 fold; Ki (σ2 receptor [4]): 39 nM |
| COc1ccc(C)cc1NC(=O)OC1CC23CCCCC2(C1)CN(Cc1ccccc1)CC3 (stereo not drawn) [syn-5] | – | – | – | inhibition of the radioligand binding, σ1 (σ1 receptor [5]; test compound concentration of 1 µM, already reported): 12%; inhibition of the radioligand binding, σ2 (σ2 receptor [6]): 0% |
| OC1CC23CCCCC2(C1)CC(NCc1ccccc1)C3 (mixture of isomers) [11-anti-13, [(8-anti-11-anti and 8-anti-11-syn)-11-(Benzylamino)[4.3.3]propellan-8-ol] | 29 | – | 121 to 123 | Ki (σ2 receptor [2]; read-out: Ki (nM) σ2): 1070 nM |
| COc1ccc(C)cc1NC(=O)NC1CC23CCCCC2(CCC3)C1 (stereo not drawn) [23c, 1-(2-Methoxy-5-methylphenyl)-3-(syn- and anti-[4.3.3]propellan-8-yl)urea] | 0 | 0 | 215 to 220 | – |
| COc1ccc(C)cc1NC(=O)OC1CC23CCCCC2(C1)CN(Cc1ccccc1)CC3 (stereo not drawn) [anti-5] | – | – | – | Ki (σ1 receptor [5]; propellanamines 4a and azapropellanes 5, already reported): 82 ± 54 nM; inhibition of the radioligand binding, σ2 (σ2 receptor [6]): 8% |
| COc1ccc(C)cc1NC(=O)OC1CC23CCCCC2(CC(NCCCN)C3)C1 (stereo not drawn) [8-anti-4r, [(8-anti-11-anti and 8-anti-11-syn)-11-[(3-Aminopropyl)amino][4.3.3]propellan-8-yl] N-(2-methoxy-5-methylphenyl)carbamate] | 16 | 0 | 74 to 76 | – |
| O=C(Nc1ccccc1)NC1CC23CCCCC2(CCC3)C1 (stereo not drawn) [23a, 1 -Phenyl-3-(syn- and anti-[4.3.3]propellan-8-yl)urea] | 0 | 15 | 134 to 138 | – |
| CN(C)c1ccc(CNC2CC34CCCCC3(CCC4)C2)cc1 (stereo not drawn) [compound 17, syn- and anti-N-(4-(Dimethylaminobenzyl)-[4.3.3]propellan-8-amine] | – | 1 | 89 to 91 | Ki (σ1 receptor [1]; [3H]-(+)-pentazocine, guinea pig brain, mean of three experiments (± SEM), values without SEM mean of two, read-out: Ki (nM) σ1): 1200 nM |
| O=C(Nc1ccc(F)c(F)c1)NC1CC23CCCCC2(CCC3)C1 (stereo not drawn) [23d, 1-(3,4-Difluorophenyl)-3-(syn- and anti-[4.3.3]propellan-8-yl)urea] | 0 | 0 | 168 to 175 | – |
| c1ccc2c(CCNC3CC45CCCCC4(CCC5)C3)c[nH]c2c1 (stereo not drawn) [compound 15, syn- and anti-N-[2-(Indol-3-yl)ethyl]-[4.3.3]propellan-8-amine] | – | – | 109 to 111 | Ki (σ1 receptor [1]; Ki (nM) σ1): 598 nM; Ki (σ2 receptor [2]): 974 nM |
| FCC[C@@H]1OC2(CCN(Cc3ccccc3)CC2)c2ccccc21 [compound 1, (S)-fluspidine] | – | – | – | Ki (σ1 receptor [3]): 2.3 nM; selectivity for σ1 against/over the σ2 subtype (σ1 receptor [3]): 300 fold; Ki (σ2 receptor [4]): 897 nM |
| COc1ccc(C)cc1NC(=O)OC1CC2CCCC(C1)N2Cc1ccccc1 (centres unmarked) [compound 3] | – | – | – | Ki (σ1 receptor [3]): 92.5 nM; Ki (σ2 receptor [4]): 3.1 nM; preference for the σ2 receptor (σ2 receptor [4]; σ2 over σ1): 30 fold |
| COc1ccc(C)cc1NC(=O)N(Cc1ccccc1)C1CC23CCCCC2(CC(=O)C3)C1 (stereo not drawn) [anti-21, 1 -Benzyl-3-(2-methoxy-5-methylphenyl)-1-(anti-11-oxo-[4.3.3]propellan-8-yl)urea] | – | – | 133 to 136 | inhibition of the radioligand binding, σ1 (σ1 receptor [1]; 1 µM): 5%; inhibition of the radioligand binding, σ2 (σ2 receptor [2]): 12% |
| O=C(NC1CCCCC1)NC1CC23CCCCC2(CCC3)C1 (stereo not drawn) [23b, 1 -Cyclohexyl-3-(syn- and anti-[4.3.3]propellan-8-yl)urea] | 0 | 0 | 187 to 193 | – |
| c1ccc(CN2CC34CCCCC3(CCC4)C2)cc1 (centres unmarked) [9a] | – | – | – | selectivity for the σ1 receptor over the σ2 receptor (σ1 receptor [1]; σ1 over σ2): at least 10 fold; Ki (σ1 receptor [5]; [7]): 17 ± 12 nM; Ki (σ2 receptor [6]; [7]): 190 nM |
| COc1ccc(C)cc1NC(=O)N(Cc1ccccc1)C1CC23CCCCC2(CC(=O)C3)C1 (stereo not drawn) [syn-21, 1 -Benzyl-3-(2-methoxy-5-methylphenyl)-1-(syn-11-oxo-[4.3.3]propellan-8-yl)urea] | – | 14 | 168 to 170 | inhibition of the radioligand binding, σ1 (σ1 receptor [1]; 1 µM): 13% |
| COc1ccc(C)cc1NC(=O)OC1CC23CCCCC2(CC(NCc2ccc(N(C)C)cc2)C3)C1 (stereo not drawn) [8-anti-4h, [(8-anti-11-anti and 8-anti-11-syn)-11-[(4-Dimethylamino)benzylamino]-[4.3.3]propellan-8-yl] N-(2-methoxy-5-methylphenyl)carbamate] | 0 | 0 | – | – |
| C1CCC(CNC2CC34CCCCC3(CCC4)C2)CC1 (stereo not drawn) [compound 18, syn- and anti-N-Cyclohexylmethyl[4.3.3]propellan-8-amine] | – | – | 108 to 111 | Ki (σ1 receptor [1]; Ki (nM) σ1): 34 ± 11 nM; Ki (σ2 receptor [2]; read-out: Ki (nM) σ2): 101 nM |
| COc1ccc(C)cc1NC(=O)N(Cc1ccccc1)C1CC23CCCCC2(CC(O)C3)C1 (stereo not drawn) [syn,syn-22, 1-benzyl-1-{(8-syn,11-syn)-11-hydroxy[4.3.3]propellan-8-yl}-3-(2-methoxy-5-methylphenyl)urea] | – | – | – | inhibition of the radioligand binding, σ1 (σ1 receptor [1]): 0%; inhibition of the radioligand binding, σ2 (σ2 receptor [2]): 0% |
